Laboratory results published in US20090298708A1, “2'-DEOXY-2'-FLUORO-BETA-D-ARABINONUCLEOSIDE 5'-TRIPHOSPHATES AND THEIR USE IN ENZYMATIC NUCLEIC ACID SYNTHESIS” (priority 2006, published 2009).

Key:
9N DNA polymerase = biological target: T1, 9N DNA polymerase (Thermococcus sp., UniProt Q56366, E143D); assay: Dropout assay, fidelity of incorporation by 9N; assay type: biochemical, Thermococcus species (strain 9° N-7); details: 30 min reaction time, 25 μM triphosphates, 55° C., template A: PF41, G: PF43, T: PF21, C: PF23
T1 construct: purchased New England Biolabs; host or cells: E. coli
Experimental: (§1) FIG. 11A illustrates the fidelity of 2′F-araATP incorporation on a DNA template PF41 by DV and 9N DNA polymerases. Reaction conditions: 0.8 unit DV and 9N, 25 μM triphosphates at 55° C. in 30 μL reaction volume; incubation time: 30 min. Group 1 & 5: dNTPs; 2 & 6: dropout of dATP; 3 & 7: 2′F-araNTPs, 4 & 8: dropout of 2′F-araATP; 27mer control DNA is PF39.
(§2) FIG. 11B illustrates the fidelity of 2′F-araGTP incorporation on DNA template PF43 by DV and 9N DNA polymerases. Reaction conditions: primer/template (1:1 molar ratio): 100 nM; 0.4 μL (0.8 unit) DV, 9N, 25 μM triphosphate concentration at 55° C. in 30 μL reaction volume. Reaction time for dNTPs (group 1, 5) was 30 min and others were shown above. Group 1 & 5: dNTPs; 2 & 6: drop out dGTP (i.e. dTTP, dCTP and dATP), 3 & 7: 2TF-araNTPs, 4 & 8: drop out 2′F-araGTP; lane P is the template PF41 as the full-length product control; PF39 is a 27-nt DNA control. All samples were analyzed by 12% denaturing PAGE.
(§3) FIG. 12A illustrates the fidelity of 2′F-araTTP incorporation by DV and 9N DNA polymerases on a DNA template PF21. Reaction conditions: 100 nM primer/template (1:1 molar ratio); 0.4 μL (0.8 unit) DV or 9N, 25 μM triphosphate concentration at 55° C. in 30 μL reaction volume. Reaction time for dNTPs (group 1, 5) was 30 min and others were shown above. Groups 1 & 5: dNTPs; 2 & 6: drop out dTTP; 3 & 7: 2′F-araNTPs; 4 & 8: drop out 2′F-araTTPs. in B: group 1 & 5: dNTPs; 2 & 6: drop out dCTP; 3 & 7: 2′F-araNTPs; 4 & 8: drop out 2′F-araCTPs; PF39 is a 27-nt DNA control. All samples were analyzed by 12% denaturing PAGE.
(§4) FIG. 12B illustrates the fidelity study of 2′F-araCTP incorporation by DV and 9N DNA polymerases on a DNA template PF23. Reaction conditions: 100 nM primer/template (1:1 molar ratio); 0.4 μL (0.8 unit) DV or 9N, 25 μM triphosphate concentration at 55° C. in 30 μL reaction volume. Reaction time for dNTPs (groups 1, 5) was 30 min and others were shown above. Groups 1 & 5: dNTPs; 2 & 6: drop out dCTP; 3 & 7: 2′F-araNTPs; 4 & 8: drop out 2′F-araCTPs; PF39 is a 27-nt DNA control. All samples were analyzed by 12% denaturing PAGE.
(§5) “Dropout assays” (Ichida et al. (2005) J. Am. Chem. Soc. 127:2802-2803) were conducted to assess the fidelity of 2′F-araNTP incorporation (each of 2′F-araATP, 2′F-araCTP, 2′F-araGTP and 2′F-araTTP) by various DNA polymerases (FIGS. 11-14). For example, the 2′F-araNTP of interest is removed from the pool, and the ensuing synthesis on DNA template (e.g. PF21, PF23, PF41, PF43) assessed in comparison with a control reaction containing all four 2′F-araNTPs. For comparison, dropout experiments containing dNTPs are run in parallel. Full-length DNA and FANA products are obtained when all four dNTPs (group 1 and 5) and 2′F-araNTPs (groups 3 and 7) were available, however, some pausing may occur during synthesis of the arabinose modified oligomers. Apparent fidelity was calculated according to the equation:
(§6) 1−[(% full-length−2′F-araNTP)/(% full-length+2′F-araNTP)]
(§7) at 30 min reaction time (sample equation for dNTP values). >99% means that the full-length product was not detectable in our dropout assays.
(§8) “Dropout assays” (Ichida et al. (2005) J. Am. Chem. Soc. 127:2802-2803) were conducted to assess apparent fidelity of 2′F-araNTP incorporation by DV and 9N. In one of these assays, 2′F-araATP was removed from the pool, and the ensuing synthesis assessed in comparison with a control reaction containing all four 2′F-araNTPs. For comparison, dropout experiments containing dNTPs were run in parallel (FIGS. 11-14). Full-length DNA and FANA products were obtained when all four dNTPs (group 1 and 5) and 2′F-araNTPs (groups 3 and 7) were available, although some pausing was evident during synthesis of the arabinose modified oligomers.

[1] = tested on: Phusion DNA polymerase (Ph); assay: Dropout assay, fidelity of incorporation by Ph; assay type: biochemical; details: 30 min reaction time, 55° C., templates PF21, PF41
Description: FIG. 13 illustrates the fidelity of 2′F-araNTP incorporation on pyrimidine rich DNA template PF21 by Ph DNA polymerase. […] Template PF41 and primer PF20 are shown; PF39 is a 27-nt DNA control.
FIG. 14 illustrates the fidelity of 2′F-araNTP incorporation on purine rich DNA template PF41 by Ph DNA polymerase. The base sequence of the primer, DNA template and resulting terminated products in different dropout conditions (condition 1-5) is shown. […] Lane 1: dNTPs; 2: drop out dCTP (i.e. dATP, dGTP and dTTP, shorten as AGT, same coding for lanes 3-5), lane 6: 2′F-araNTPs; 7: drop out 2′F-araCTP (i.e. 2′F-araATP, 2′F-araGTP, 2′F-araTTP, shorten as AGT; same coding for lanes 8-10). The template PF41 and the primer PF20 are shown; PF39 is a 27mer DNA control.
For example, the 2′F-araNTP of interest is removed from the pool, and the ensuing synthesis on DNA template (e.g. PF21, PF23, PF41, PF43) assessed in comparison with a control reaction containing all four 2′F-araNTPs. For comparison, dropout experiments containing dNTPs are run in parallel. […] Apparent fidelity was calculated according to the equation:
as §6
In one of these assays, 2′F-araATP was removed from the pool, and the ensuing synthesis assessed in comparison with a control reaction containing all four 2′F-araNTPs. For comparison, dropout experiments containing dNTPs were run in parallel (FIGS. 11-14).
Phusion DNA polymerase (Ph) was evaluated for fidelity of 2′F-araNTP incorporation using the same dropout assay. All four dropout experiments were conducted with the same DNA template PF21 (FIG. 13), or PF41 (FIG. 14).

DV DNA polymerase = biological target: T2, DV DNA polymerase (Pyrococcus sp., UniProt Q51334, D141A/DEL493-1029/E143A); assay: Dropout assay, fidelity of incorporation by DV; assay type: biochemical, Pyrococcus species GB-D; details: 30 min reaction time, 25 μM triphosphates, 55° C., template A: PF41, G: PF43, T: PF21, C: PF23
T2 construct: purchased New England Biolabs; host or cells: E. coli
Experimental: as §1, §2, §3, §4, §5, §6, §7, §8

DNA polymerases = assay: Primer extension assays, statement for all enzymes studied; assay type: biochemical; details: DNA template PF24; 9N, HIV, MMLV, DV

Structure (SMILES) | % Apparent Fidelity, dNTP (9N DNA polymerase) | % Apparent Fidelity, dNTP [1] | % Apparent Fidelity, dNTP (DV DNA polymerase) | % Apparent Fidelity, 2′F-araNTP (9N DNA polymerase) | % Apparent Fidelity, 2′F-araNTP [1] | % Apparent Fidelity, 2′F-araNTP (DV DNA polymerase) | order of incorporation efficiency (DNA polymerases)
Cc1cn([C@H]2C[C@H](O)[C@@H](COP(=O)(O)OP(=O)(O)OP(=O)(O)O)O2)c(=O)[nH]c1=O [dTTP, reference compound] | 32% | >99% | 19% | – | – | – | –
Nc1ccn([C@@H]2O[C@H](COP(=O)(O)OP(=O)(O)OP(=O)(O)O)[C@@H](O)[C@@H]2F)c(=O)n1 [2′F-araCTP, 1-(2-deoxy-2-fluoro-β-D-arabinofuranosyl)cytosine 5′-triphosphate] | – | – | – | C: 43% | C: >99% | C: 50% | dCTP=2′F-rCTP>2′F-araCTP >>rCTP
Cc1cn([C@@H]2O[C@H](COP(=O)(O)OP(=O)(O)OP(=O)(O)O)[C@@H](O)[C@@H]2F)c(=O)[nH]c1=O [2′F-araTTP, 1-(2-deoxy-2-fluoro-β-D-arabino-furanosyl)thymine 5′-triphosphate] | – | – | – | T: 76% | T: >99% | T: 3% | –
Nc1ccn([C@H]2C[C@H](O)[C@@H](COP(=O)(O)OP(=O)(O)OP(=O)(O)O)O2)c(=O)n1 [dCTP] | 82% | >99% | 3% | – | – | – | dCTP=2′F-rCTP>2′F-araCTP >>rCTP
Nc1ccn([C@@H]2O[C@H](COP(=O)(O)OP(=O)(O)OP(=O)(O)O)[C@@H](O)[C@H]2F)c(=O)n1 [2′F-rCTP, 1-(2-deoxy-2-fluoro-β-D-ribofuranosyl) cytosine 5′-triphosphate, reference compound] | – | – | – | – | – | – | dCTP=2′F-rCTP>2′F-araCTP >>rCTP
